Source: patent publication US20220323406A1, “METHODS AND COMPOSITIONS FOR DIFFERENTIATING STEM CELLS” (Massachusetts Institute of Technology, priority 2019, published 2022)

Legend:
[1] = system: ENR+CD organoids (ISC to Paneth cell differentiation); assay: Primary screen: basal (non-stimulated) lysozyme secretion LYZ.NS, 2.5-D 384-well ENR+CD organoid differentiation; format: cell-based, mouse
Source text: (§1) High-throughput screening.

[2] = system: ENR+CD organoids; assay: Primary screen: ATP (CellTiter-Glo 3D, CTG) cell number/viability, 2.5-D 384-well ENR+CD organoids;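 further: compounds given at plating and again on day 3 over a 6-day differentiation from ENR+CV stem-cell-enriched precursors, ATP measured on day 6, plate median as control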
[3] = system: ENR+CD organoids (ISC to Paneth cell differentiation); assay: Primary screen: CCh-stimulated lysozyme secretion LYZ.S, 2.5-D 384-well ENR+CD organoid differentiation; format: cell-based, mouse; details: primary screen
Source text: as §1

[4] = primary screen, dose 0.08 uM, standard z score
[5] = primary screen, dose 0.40 uM, standard z score
[6] = primary screen, dose 2.00 uM, standard z score
[7] = primary screen, dose 10.00 uM, standard z score
[8] = primary screen; dose 0.08 uM; FC vs plate median
[9] = primary screen; dose 0.40 uM; FC vs plate median
[10] = primary screen; dose 2.00 uM; FC vs plate median
[11] = primary screen; dose 10.00 uM; FC vs plate median
[12] = primary screen, standard z score, dose 0.08 uM
[13] = primary screen, standard z score, dose 0.40 uM
[14] = primary screen, standard z score, dose 2.00 uM
[15] = primary screen, standard z score, dose 10.00 uM
[16] = primary screen, dose 0.08 uM, FC relative to plate median
[17] = primary screen, dose 0.40 uM, FC relative to plate median
[18] = primary screen, dose 2.00 uM, FC relative to plate median
[19] = primary screen, dose 10.00 uM, FC relative to plate median

SMILES	Z.LYZ.NS [1, 4]	Z.LYZ.NS [1, 5]	Z.LYZ.NS [1, 6]	Z.LYZ.NS [1, 7]	Z.CTG [2, 4]	Z.CTG [2, 5]	Z.CTG [2, 6]	Z.CTG [2, 7]	Dose.FC.LYZ.NS ([1]; primary screen, dose 0.08 uM) [log2 fold change]	Dose.FC.LYZ.NS ([1]; primary screen, dose 0.40 uM) [log2 fold change]	Dose.FC.LYZ.NS ([1]; primary screen, dose 2.00 uM) [log2 fold change]	Dose.FC.LYZ.NS ([1]; primary screen, dose 10.00 uM) [log2 fold change]	Dose.FC.CTG ([2]; primary screen, dose 0.08 uM) [log2 fold change]	Dose.FC.CTG ([2]; primary screen, dose 0.40 uM) [log2 fold change]	Dose.FC.CTG ([2]; primary screen, dose 2.00 uM) [log2 fold change]	Dose.FC.CTG ([2]; primary screen, dose 10.00 uM) [log2 fold change]	Dose.FC.LYZ.S ([3]; dose 0.08 uM) [log2 fold change]	Dose.FC.LYZ.S ([3]; dose 0.40 uM) [log2 fold change]	Dose.FC.LYZ.S ([3]; dose 2.00 uM) [log2 fold change]	Dose.FC.LYZ.S ([3]; dose 10.00 uM) [log2 fold change]	further results
O=C(NNc1ccccc1)c1ccncc1 [PluriSIn #1 (NSC 14613)]	0.720	0.039	−0.929	−2.475	−0.349	−0.226	−1.035	−2.038	–	–	–	–	–	–	–	–	–	–	–	–	Dose.FC.LYZ.NS [1, 8]: 0.083 log2 fold change; Dose.FC.LYZ.NS [1, 9]: 0.004 log2 fold change; Dose.FC.LYZ.NS [1, 10]: −0.107 log2 fold change; Dose.FC.LYZ.NS [1, 11]: −0.284 log2 fold change; Dose.FC.CTG [2, 8]: −0.146 log2 fold change; Dose.FC.CTG [2, 9]: −0.095 log2 fold change; Dose.FC.CTG [2, 10]: −0.433 log2 fold change; Dose.FC.CTG [2, 11]: −0.853 log2 fold change; Dose.FC.LYZ.S ([3]; dose 0.08 uM, FC vs plate median): 0.057 log2 fold change; Dose.FC.LYZ.S ([3]; dose 0.40 uM, FC vs plate median): −0.007 log2 fold change; Dose.FC.LYZ.S ([3]; dose 2.00 uM, FC vs plate median): −0.133 log2 fold change; Dose.FC.LYZ.S ([3]; dose 10.00 uM, FC vs plate median): −0.372 log2 fold change
Cc1ccc2c(=O)c3cccc(CC(=O)O)c3oc2c1C [DMXAA (Vadimezan)]	–	–	–	–	–	–	–	–	−0.007	−0.036	−0.038	−0.031	−0.568	−0.629	−0.477	−0.230	−0.091	−0.009	−0.094	−0.118	Z.LYZ.NS [1, 12]: −0.065; Z.LYZ.NS [1, 13]: −0.317; Z.LYZ.NS [1, 14]: −0.334; Z.LYZ.NS [1, 15]: −0.271; Z.CTG [2, 12]: −1.357; Z.CTG [2, 13]: −1.502; Z.CTG [2, 14]: −1.139; Z.CTG [2, 15]: −0.550
COc1ccccc1Oc1c(NS(=O)(=O)c2ccc(C(C)(C)C)cc2)nc(-c2ncccn2)nc1OCCO [Bosentan Hydrate]	–	–	–	–	–	–	–	–	0.090	0.068	0.039	0.058	0.204	0.207	0.121	0.085	0.145	0.100	0.014	0.045	Z.LYZ.NS (standard z score) ([1]; primary screen, dose 0.08 uM): 0.785; Z.LYZ.NS (standard z score) ([1]; primary screen, dose 0.40 uM): 0.589; Z.LYZ.NS (standard z score) ([1]; primary screen, dose 2.00 uM): 0.337; Z.LYZ.NS (standard z score) ([1]; primary screen, dose 10.00 uM): 0.508
CC(C)[C@H](O)C(=O)N[C@@H](C)C(=O)N[C@@H]1C(=O)N(C)CCc2ccccc21 [Semagacestat (LY450139)]	0.151	−0.181	−0.704	−0.942	0.338	−0.494	−0.306	−2.045	–	–	–	–	–	–	–	–	–	–	–	–	Dose.FC.LYZ.NS [1, 16]: 0.017 log2 fold change; Dose.FC.LYZ.NS [1, 17]: −0.021 log2 fold change; Dose.FC.LYZ.NS [1, 18]: −0.081 log2 fold change; Dose.FC.LYZ.NS [1, 19]: −0.108 log2 fold change; Dose.FC.CTG [2, 16]: 0.141 log2 fold change; Dose.FC.CTG [2, 17]: −0.207 log2 fold change; Dose.FC.CTG [2, 18]: −0.128 log2 fold change; Dose.FC.CTG [2, 19]: −0.856 log2 fold change; Dose.FC.LYZ.S ([3]; dose 0.08 uM, FC relative to plate median): −0.014 log2 fold change; Dose.FC.LYZ.S ([3]; dose 0.40 uM, FC relative to plate median): −0.006 log2 fold change; Dose.FC.LYZ.S ([3]; dose 2.00 uM, FC relative to plate median): −0.081 log2 fold change; Dose.FC.LYZ.S ([3]; dose 10.00 uM, FC relative to plate median): −0.162 log2 fold change
